# Patent US10760052B2, “Method of inhibiting tau phosphorylation” (priority 2012, dated 2020)
# Like-named read-outs stand apart in the source and are kept apart here.
# Legend:
# α7nAChR-FLNA complex [1] = molecular target: T1, α7nAChR-FLNA complex (Rattus norvegicus, UniProt A0A8I5ZV49); test: Aβ42-induced α7nAChR-FLNA association in rat frontal cortical synaptosomes (co-immunoprecipitation/Western blot); type: cell-based; details: 1 or 10 nM compound, simultaneously or 10 minutes prior to Aβ42 (0.1 μM)
# T1 construct: from tissue; host or cells: rat frontal cortex synaptosomes
# T1 sequence (A0A8I5ZV49 entry or part of it, one chain of several): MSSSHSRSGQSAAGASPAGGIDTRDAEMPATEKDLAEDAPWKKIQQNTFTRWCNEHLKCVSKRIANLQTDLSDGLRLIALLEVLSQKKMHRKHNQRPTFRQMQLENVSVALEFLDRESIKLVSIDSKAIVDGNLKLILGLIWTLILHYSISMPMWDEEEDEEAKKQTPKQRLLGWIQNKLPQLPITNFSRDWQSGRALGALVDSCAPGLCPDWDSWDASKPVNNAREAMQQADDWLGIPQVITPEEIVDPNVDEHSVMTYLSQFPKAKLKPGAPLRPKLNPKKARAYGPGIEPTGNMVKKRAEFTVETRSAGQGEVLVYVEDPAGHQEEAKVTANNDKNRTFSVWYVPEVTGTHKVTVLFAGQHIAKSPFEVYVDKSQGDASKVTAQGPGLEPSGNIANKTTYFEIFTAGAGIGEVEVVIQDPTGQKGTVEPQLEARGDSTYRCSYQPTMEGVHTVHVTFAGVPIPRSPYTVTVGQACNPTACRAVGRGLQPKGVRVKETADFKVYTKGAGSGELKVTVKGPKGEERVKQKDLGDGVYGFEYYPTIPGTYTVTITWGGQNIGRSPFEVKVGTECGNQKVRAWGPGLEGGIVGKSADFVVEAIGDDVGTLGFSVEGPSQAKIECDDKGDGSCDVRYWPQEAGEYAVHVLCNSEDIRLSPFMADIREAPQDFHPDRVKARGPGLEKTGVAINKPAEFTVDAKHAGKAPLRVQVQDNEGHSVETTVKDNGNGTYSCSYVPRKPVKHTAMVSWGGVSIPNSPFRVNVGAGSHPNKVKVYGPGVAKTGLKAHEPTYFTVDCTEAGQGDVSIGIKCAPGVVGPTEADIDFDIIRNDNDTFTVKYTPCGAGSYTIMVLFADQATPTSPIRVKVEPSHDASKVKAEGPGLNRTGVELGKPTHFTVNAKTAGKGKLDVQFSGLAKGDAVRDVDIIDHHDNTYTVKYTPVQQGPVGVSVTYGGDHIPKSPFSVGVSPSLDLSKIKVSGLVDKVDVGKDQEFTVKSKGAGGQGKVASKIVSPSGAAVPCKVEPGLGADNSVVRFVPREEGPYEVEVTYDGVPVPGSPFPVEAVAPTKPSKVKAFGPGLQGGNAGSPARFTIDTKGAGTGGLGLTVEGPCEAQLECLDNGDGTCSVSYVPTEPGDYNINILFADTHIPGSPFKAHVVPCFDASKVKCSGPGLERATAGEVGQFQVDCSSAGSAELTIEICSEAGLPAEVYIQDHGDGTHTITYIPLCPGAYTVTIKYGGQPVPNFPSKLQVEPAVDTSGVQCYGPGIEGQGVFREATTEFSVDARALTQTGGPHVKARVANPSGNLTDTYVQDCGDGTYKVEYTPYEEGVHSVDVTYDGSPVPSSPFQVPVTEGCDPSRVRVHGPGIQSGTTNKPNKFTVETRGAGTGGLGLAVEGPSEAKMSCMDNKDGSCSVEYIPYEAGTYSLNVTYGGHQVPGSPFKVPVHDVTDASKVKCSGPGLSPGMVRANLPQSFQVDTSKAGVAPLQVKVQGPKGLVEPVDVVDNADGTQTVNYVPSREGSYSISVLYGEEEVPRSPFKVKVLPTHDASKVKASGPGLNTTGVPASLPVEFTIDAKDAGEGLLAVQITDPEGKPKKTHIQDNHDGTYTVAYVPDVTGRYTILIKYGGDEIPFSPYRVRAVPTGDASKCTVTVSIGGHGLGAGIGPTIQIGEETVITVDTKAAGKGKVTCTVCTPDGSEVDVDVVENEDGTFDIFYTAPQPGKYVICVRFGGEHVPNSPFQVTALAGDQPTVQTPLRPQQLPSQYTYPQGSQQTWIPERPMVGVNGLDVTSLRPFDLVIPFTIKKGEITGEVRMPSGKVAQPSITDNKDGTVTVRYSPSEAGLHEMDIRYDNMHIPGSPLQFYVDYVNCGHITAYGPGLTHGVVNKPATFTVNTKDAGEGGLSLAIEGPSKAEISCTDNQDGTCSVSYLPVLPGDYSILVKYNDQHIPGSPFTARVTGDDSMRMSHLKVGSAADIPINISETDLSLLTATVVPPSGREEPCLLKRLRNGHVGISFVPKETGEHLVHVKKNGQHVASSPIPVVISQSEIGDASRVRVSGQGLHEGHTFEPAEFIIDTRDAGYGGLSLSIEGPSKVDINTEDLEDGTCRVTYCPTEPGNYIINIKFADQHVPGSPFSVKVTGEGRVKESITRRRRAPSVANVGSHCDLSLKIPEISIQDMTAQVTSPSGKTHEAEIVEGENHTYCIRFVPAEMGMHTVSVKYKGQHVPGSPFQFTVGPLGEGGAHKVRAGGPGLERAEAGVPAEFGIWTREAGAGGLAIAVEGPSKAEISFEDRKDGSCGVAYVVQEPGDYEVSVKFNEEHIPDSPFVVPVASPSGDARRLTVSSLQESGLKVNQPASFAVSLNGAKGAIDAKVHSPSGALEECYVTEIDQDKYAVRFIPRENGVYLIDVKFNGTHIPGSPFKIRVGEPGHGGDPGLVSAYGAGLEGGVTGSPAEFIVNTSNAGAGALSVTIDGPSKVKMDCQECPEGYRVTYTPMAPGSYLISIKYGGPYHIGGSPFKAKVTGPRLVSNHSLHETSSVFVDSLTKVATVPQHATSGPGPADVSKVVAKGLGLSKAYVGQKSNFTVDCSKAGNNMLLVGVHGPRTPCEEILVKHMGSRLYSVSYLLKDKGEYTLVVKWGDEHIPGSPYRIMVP
# Excerpt: The α7nAChR-FLNA complexes in the solubilized synaptosomes were immunoprecipitated with immobilized anti-FLNA and the α7nAChR and FLNA levels in the anti-FLNA immunoprecipitates determined by Western blotting (FIG. 2A) and quantified by densitometry (FIG. 2B). n=3. […] The letter designation “M” that accompanies many of the “C-series” compounds is omitted from FIG. 2, the remaining figures and most discussions of the figures and compounds hereinafter for ease in expression. Structural formulas of the compounds used in this and the other figures are provided hereinafter. […]
# [2] = test system: tau protein phosphorylated at S202, T231 and T181; test: Aβ42-induced tau phosphorylation in rat frontal cortical synaptosomes; type: cell-based; details: 1 or 10 nM compound, simultaneously or 10-minute pretreatment; Aβ42 0.1 μM
# Description: FIG. 4 in four panels as FIGS. 4A-4D, illustrates that FLNA-binding compounds reduce tau phosphorylation at all three phosphorylation sites. […] The three phosphoepitopes of tau were detected in immunoprecipitates using specific antibodies. […] Immunoprecipitates were determined by Western blotting (FIGS. 4A-4C) and quantified by densitometry (FIG. 4D).
# (§1) FIG. 42, also in two panels, FIGS. 42A and 42B, illustrates that FLNA-binding compounds reduce tau phosphorylation at all three phosphorylation sites using the compounds and concentrations of FIG. 41 using immunoprecipitation and Western blotting. […] The three phosphoepitopes of tau were detected in immunoprecipitates using specific antibodies.
# as §1, with “44,” for “42,”, “FIG. 44A” for “FIGS. 42A”, “FIG. 44B,” for “42B,”, “43” for “41”, “antibodies. Aβ42 strongly promotes tau phosphorylation at all three sites.” for “antibodies.”
# as §1, with “46,” for “42,”, “FIG. 46A” for “FIGS. 42A”, “FIG. 46B,” for “42B,”, “45” for “41”, “antibodies. Aβ42 strongly promotes tau phosphorylation at all three sites.” for “antibodies.”
# The three primary phosphorylation sites on tau protein were examined for their phosphorylation levels compared to total tau protein content. Tau, phosphorylated at these three sites, is a constituent of NFTs. Consistent with effects on FLNA-α7nAChR association, and ERK2 activation, all of the FLNA-binding compounds assayed, with 10 minute pre-incubation, decreased Aβ42-induced phosphorylation of tau at all three sites (FIG. 4).
# insulin receptor (IR) = test: IR activation and signaling (pY1150/1151 IRβ, IRS-1) in slice cultures; type: cell-based, rat; details: insulin stimulation
# Description: IR activation and signaling was initiated by incubation of 6 slices that were further chopped horizontally into 100 μm (100 μm×200 μm×3 mm) with either KR (basal) or KR containing 1 nM insulin at 37° C. for 30 minutes. […] Ligand stimulation was terminated by the addition of 1 ml of ice-cold Ca^2+-free K-R containing mixture of protein phosphatase inhibitors, 0.5 mM EGTA and 0.1 mM EDTA. Brain slices were harvested by a brief centrifugation and were homogenized in 0.25 ml of ice-cold immunoprecipitation buffer. The homogenates were centrifuged at 1000×g for 5 minutes (4° C.) and the supernatant (post-mitochondrial fraction) was sonicated for 10 seconds on ice. […] The resultant lysates were then cleared by centrifugation at 50,000×g for 5 minutes and diluted with 0.75 ml of immunoprecipitation buffer. Protein concentrations were measured by Bradford method (Bio-Rad).
# In these experiments, brain slice lysates (100 μg) were immunoprecipitated overnight (about 18 hours) at 4° C. with 2 μg of immobilized anti-IRβ onto covalently conjugated protein A-agarose beads (Pierce-ENDOGEN). […]
# NMDAR [3] = type: cell-based, rat; details: slice cultures, 0.1 μM Aβ42
# NMDAR [4] = test: Levels of signaling molecules associated with NMDAR (NR1) in slice cultures; type: cell-based, rat; details: 0.1 μM Aβ42
# Description: NMDAR activation and signaling was initiated by incubation of 6 slices with either 0.3 mM Mg^2+ containing KR (LMKR; basal) or LMKR containing 10 μM NMDA and 1 μM glycine at 37° C. for 30 minutes.
# Ligand stimulation was terminated by the addition of 1 ml of ice-cold Ca^2+-free K-R containing mixture of protein phosphatase inhibitors, 0.5 mM EGTA and 0.1 mM EDTA. Brain slices were harvested by a brief centrifugation and were homogenized in 0.25 ml of ice-cold immunoprecipitation buffer. The homogenates were centrifuged at 1000×g for 5 minutes (4° C.) and the supernatant (post-mitochondrial fraction) was sonicated for 10 seconds on ice.
# The resultant lysates were cleared by centrifugation at 50,000×g for 5 minutes and diluted with 0.75 ml of immunoprecipitation buffer. Protein concentrations were measured by Bradford method (Bio-Rad).
# To determine the association of NMDARs with PSD-95, as well as NMDAR signaling, the levels of NMDAR subunits, PSD-95 and NMDAR-associated signaling molecules were measured in anti-NR1 immunoprecipitates. In these studies, brain slice lysates (100 μg) were immunoprecipitated overnight at 4° C. with 2 μg of immobilized anti-NR1 onto covalently conjugated protein A-agarose beads (Pierce-ENDOGEN). […]
# FLNA-TLR4 association = test: FLNA association with TLR4 in organotypic frontocortical slice cultures; type: cell-based, rat; details: 100 nM Aβ42, 16 hours, compound added simultaneously
# Description: (§2) Tissue was harvested and solubilized, and a specific antibody against FLNA was used to immunoprecipitate FLNA and associated proteins. The FLNA immunoprecipitate was size-fractionated using SDS-PAGE, transferred and probed with specific antibodies directed against each of the following receptors: α7nAChR, TLR4, IR and MOR.
# (§3) Rat brain slice organotypic culture methods were modified from those published previously. [Adamchik et al., Brain Res Brain Res Protoc 5:153-158 (2000).] FCX slices ([…]) were transferred to sterile, porous Millicell-CM inserts (0.4 μm). Each culture insert unit contained two brain slices and was placed into individual wells of a 12-well culture tray in 2 ml medium: 50% MEM with Earl's salts, 2 mM L-glutamine, 25% Earl's balanced salt solution, 6.5 g/l D-glucose, 20% fetal bovine serum (FBS), 5% horse serum, 25 mM HEPES buffer, pH 7.2, and […]. […]
# (§4) The level of FLNA-associated α7nAChRs was determined using a co-immunoprecipitation/Western blotting method as described previously. […] The levels of FLNA-associated α7nAChR, TLR4, IR and MOR were assessed by Western blotting using specific antibodies directed against the respective proteins and the blot stripped and re-probed for FLNA for immunoprecipitation/loading control.
# α7nAChR (Aβ42 binding) = test: FITC-Aβ42 binding to biotinylated α7nAChR-containing SK-N-MC cell fragments; parameters: species or system human; details: added simultaneously, 30° C., 30 minutes
# FLNA-α7nAChR association = test: FLNA association with α7nAChR in organotypic frontocortical slice cultures; type: cell-based, rat; details: 100 nM Aβ42, 16 hours, compound added simultaneously
# Description: as §2, §3, §4
# [5] = test system: voltage-gated Ca2+ channel mediated Ca2+ influx; type: cell-based, rat; details: slice cultures
# α7nAChR = type: cell-based, rat
# [6] = test system: tau (pSer202, pThr231, pThr181); test: Tau phosphorylation in organotypic frontocortical slice cultures; type: cell-based, rat; details: C0105 0.1, 1, 10 nM; C0114 1, 10 nM; simultaneous with Aβ42
# Description: On the day of study, medium was removed, the brain slices rinsed and incubated in 0.1% FBS-containing medium for 4 hours at 36° C. in 5% CO2.
# The levels of phosphorylated tau (pSer202tau, pThr231tau and pThr181tau) as well as total tau precipitated (loading controls) are assessed by Western blotting using specific antibodies directed against each of the phosphoepitopes and the anti-tau, respectively.
# α7nAChR-FLNA complex [7] = molecular target: T2, α7nAChR-FLNA complex (Homo sapiens, UniProt P36544); type: cell-based
# T2 construct: In postmortem control frontocortical tissue, Aβ42-induced FLNA recruitment to α7nAChRs was mimicked; from tissue; host or cells: postmortem frontal cortex of control subjects
# T2 sequence (P36544 23-502, one chain of several): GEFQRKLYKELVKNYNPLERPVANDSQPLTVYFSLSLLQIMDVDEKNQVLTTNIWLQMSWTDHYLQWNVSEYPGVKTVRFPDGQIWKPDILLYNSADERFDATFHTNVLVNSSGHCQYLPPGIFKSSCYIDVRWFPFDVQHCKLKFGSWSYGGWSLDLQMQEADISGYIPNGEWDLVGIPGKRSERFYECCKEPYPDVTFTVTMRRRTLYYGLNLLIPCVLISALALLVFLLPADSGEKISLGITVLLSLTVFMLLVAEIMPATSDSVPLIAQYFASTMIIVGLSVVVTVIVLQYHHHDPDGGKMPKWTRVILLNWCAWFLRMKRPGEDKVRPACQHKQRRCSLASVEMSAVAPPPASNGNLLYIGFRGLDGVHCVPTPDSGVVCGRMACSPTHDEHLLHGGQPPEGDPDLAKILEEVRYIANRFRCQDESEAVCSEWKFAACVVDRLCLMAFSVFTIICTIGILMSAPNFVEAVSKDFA
# Description: Incubation continued for 1 hour in the dark. […] The reaction was terminated by the addition of 1.5 ml of ice-cold Ca^2+-free K-R, and slices were collected by a brief centrifugation.
# Solubilized immunoprecipitates derived from co-immunoprecipitation assays were separated by either 7.5 or 10% SDS-PAGE and then electrophoretically transferred to nitrocellulose membranes. The membranes were washed with PBS and blocked overnight (about 18 hours) at 4° C. with 10% milk in PBS with 0.1% Tween®-20 (PBST). Following three 5-minute washes with 0.1% PBST, the membranes were incubated at room temperature for 2 hours with antibody of choice at 1:500-1:1,000 dilutions. After three 2-minute washes in 0.1% PBST, membranes were incubated for 1 hour with anti-species IgG-HRP (1:5,000 dilution) and washed with 0.1% PBST three times, 2-minutes each. Immunoreactivity was visualized by reacting with chemiluminescent reagent (Pierce-ENDOGEN) for exactly 5 minutes and immediately exposing to X-ray film. Specific bands were quantified by densitometric scanning (GS-800 calibrated densitometer, Bio-Rad Laboratories).
# [8] = 1 μM agent, relative to 0.1 μM Aβ42
compound,measurement,setting,value
O=C1CNC2(CCN(C(=S)Nc3ccccc3)CC2)N1Cc1ccccc1 [Compound A],α7nAChR-FLNA association (ratio α7nAChR/FLNA),α7nAChR-FLNA complex [1],statistically different from Aβ42 alone
same,"Aβ42-induced tau phosphorylation at S202, T231 and T181",[2],reduced tau phosphorylation with simultaneous administration at 1 nM
O=C1CNC2(CCN(C(=S)Nc3cccnc3)CC2)N1Cc1ccccc1 [Compound B],α7nAChR-FLNA association (ratio α7nAChR/FLNA),α7nAChR-FLNA complex [1],statistically different from Aβ42 alone
CC(=O)c1ccc(S(=O)(=O)N2CCC3(CC2)NC(=O)CO3)cc1 [Compound C0087],α7nAChR-FLNA association (ratio α7nAChR/FLNA),α7nAChR-FLNA complex [1],reduce α7nAChR-FLNA association
CC(=O)c1ccc(S(=O)(=O)N2CC(CN(C)C)OC23CCN(C)CC3)cc1 (stereo not shown) [Compound C0108],α7nAChR-FLNA association (ratio α7nAChR/FLNA),α7nAChR-FLNA complex [1],reduce α7nAChR-FLNA association
O=C1CNC2(CCNCC2)N1Cc1ccccc1 [Compound C0114],"Aβ42-induced IR signaling impairments (IRS-1 association, pY1150/1151 IRβ)",insulin receptor (IR),normalized the signaling impairments
same,Aβ42-induced impairment in NMDAR function (calcium influx after NMDA and glycine),NMDAR [3],significantly restoring NMDAR function
same,Levels of six signaling molecules associated with NR1 after NMDA and glycine,NMDAR [4],fully restored function
same,Aβ42-induced increase in FLNA-TLR4 association,FLNA-TLR4 association,reduced the FLNA-α7AchR association at both concentrations and the FLNA-TLR4 association at 10 nM
same,Inhibition of FITC-Aβ42 binding,α7nAChR (Aβ42 binding); 0.1 nM compound,27.8±3.3%
same,Inhibition of FITC-Aβ42 binding,α7nAChR (Aβ42 binding); 1 nM compound,40.0±2.1%
same,Inhibition of FITC-Aβ42 binding,α7nAChR (Aβ42 binding); 10 nM compound,53.4±3.6%
same,Aβ42-induced increase in FLNA-α7nAChR association,FLNA-α7nAChR association,reduced the FLNA-α7AchR association at both concentrations
same,Aβ42-induced reduction of K+-evoked calcium influx,[5],completely reversed
same,Aβ42-induced impairment in α7nAChR function (calcium influx after PNU282987),α7nAChR,restored functioning of this receptor
same,Aβ42-induced tau phosphorylation,[6],reduced tau phosphorylation at all three phosphorylation sites
O=C1CNC2(CCN(CC3CC3)CC2)N1Cc1ccccc1 [Compound C0124],α7nAChR-FLNA association (ratio α7nAChR/FLNA),α7nAChR-FLNA complex [1],reduce α7nAChR-FLNA association
same,"Aβ42-induced tau phosphorylation at S202, T231 and T181",[2],reduced this phosphorylation at both concentrations
Cc1ccc(S(=O)(=O)N2CCOC23CCN(CC2CC2)CC3)cc1 [Compound C0134],α7nAChR-FLNA association (ratio α7nAChR/FLNA),α7nAChR-FLNA complex [1],statistically different from Aβ42 alone
O=C(Nc1ccccc1)N1CCC2(CC1)NCC(=O)N2Cc1ccccc1 [Compound C],α7nAChR-FLNA association (ratio α7nAChR/FLNA),α7nAChR-FLNA complex [1],statistically different from Aβ42 alone
same,"Aβ42-induced tau phosphorylation at S202, T231 and T181",[2],did not provide a statistically significant result at two phosphorylation positions when simultaneously administered
"COc1ccc2c3c1O[C@H]1C[C@@H](O)C=C[C@@]31CCN(C)C2 [Galantamine, galantamine]","FLNA/α7nAChR ratio (stimulation vs vehicle, %)",α7nAChR-FLNA complex [7]; 1 μM agent,(17.1 ± 14.6) %
same,"Aβ42 effect, %",α7nAChR-FLNA complex [7]; [8],1.7 ± 1.5%
"CC12CC3CC(C)(C1)CC(N)(C3)C2 [Memantine, memantine]","FLNA/α7nAChR ratio (stimulation vs vehicle, %)",α7nAChR-FLNA complex [7]; 1 μM agent,(225.9 ± 38.5) %
same,FLNA/α7nAChR ratio,"α7nAChR-FLNA complex [7]; 1 μM agent, postmortem control frontocortical tissue",0.21 ± 0.03
same,"Aβ42 effect, %",α7nAChR-FLNA complex [7]; [8],23.0 ± 3.9%
same,FLNA recruitment to α7nAChRs (in words),α7nAChR-FLNA complex [7]; postmortem control frontocortical tissue,elicited the recruitment of FLNA to α7nAChRs
"CCN1C[C@]2(COC(=O)c3ccccc3N3C(=O)C[C@H](C)C3=O)CC[C@H](OC)[C@@]34[C@@H]5C[C@H]6[C@H](OC)[C@@H]5[C@](O)(C[C@@H]6OC)[C@@](O)([C@@H](OC)[C@H]23)[C@@H]14 [Methyllycaconitine, methyllycaconitine]","Aβ42 effect, %",α7nAChR-FLNA complex [7],2.0 ± 1.2%
same,FLNA recruitment to α7nAChRs (in words),α7nAChR-FLNA complex [7],showed no effect
same,FLNA/α7nAChR ratio,α7nAChR-FLNA complex [7],0.08 ± 0.02
same,"FLNA/α7nAChR ratio (stimulation vs vehicle, %)",α7nAChR-FLNA complex [7],(19.8 ± 12.2) %
"CN1CCCC1c1cccnc1 (stereo not shown) [Nicotine, nicotine]","Aβ42 effect, %",α7nAChR-FLNA complex [7],11.0 ± 3.2%
same,FLNA/α7nAChR ratio,α7nAChR-FLNA complex [7],0.13 ± 0.02
same,"FLNA/α7nAChR ratio (stimulation vs vehicle, %)",α7nAChR-FLNA complex [7],(107.7 ± 31.4) %
O=C(N[C@H]1CN2CCC1CC2)c1ccc(Cl)cc1 [PNU282987],"Aβ42 effect, %",α7nAChR-FLNA complex [7],8.9 ± 3.9%
same,FLNA/α7nAChR ratio,α7nAChR-FLNA complex [7],0.12 ± 0.02
same,"FLNA/α7nAChR ratio (stimulation vs vehicle, %)",α7nAChR-FLNA complex [7],(87.1 ± 37.9) %
